Measurements reported in patent publication US10154988B2, “Methods and compositions for treating schizophrenia” (The Johns Hopkins University, priority 2012, dated 2018).
“Also recorded” adds a separate entry of the source.

Columns and labels:
[1] = tested on: Age-Impaired (AI) Long-Evans rats; test: Morris Water Maze retention trial, levetiracetam in aged-impaired rats; type: in vivo, rat
Procedure: The MWM apparatus consists of a large, circular pool (diameter 1.83 m; height, 0.58 m) filled with water (27° C.) that is made opaque through the addition of non-toxic pigment or some other substance. In the typical “hidden platform” version of the test, rats are trained to find a camouflaged white escape platform (height, 34.5 cm) that is positioned in the center of one quadrant of the maze about 1.0 cm below the water surface. This platform can be retracted to the bottom of the tank or raised to its normal position from outside the maze during behavioral testing. The location of the platform remains constant from trial to trial. Because there are no local cues that mark the position of the platform, the rat's ability to locate it efficiently from any starting position at the perimeter of the pool depends on using information surrounding the maze. The maze is surrounded by black curtains to which white patterns are affixed to provide a configuration of spatial cues. A second platform (height 37.5 cm), with its surface painted black is elevated 2 cm above the water surface during cue training to control for factors unrelated to cognition. The behavior of a rat in the pool is recorded by a camera that is suspended 2.5 m above the center of the pool. The camera is connected to a video tracking system (HVS Image Advanced Tracker VP200) and a PC computer running HVS software developed by Richard Baker of HVS Image, Hampton, UK. The MWM protocol is optimized for sensitivity to the effects of aging on cognition and for measures of reliable individual differences within the aged population of out-bred Long-Evans rats (Gallagher et al. Behav. Neurosci. 107:618-626, (1993)). Rats receive three trials per day for 8 consecutive days, using a 60 sec inter-trial interval. On each training trial, the rat is released into the maze from one of four equally spaced starting positions around the perimeter of the pool. The starting position varies from trial to trial, thus preventing the use of a response strategy (e.g., always turning left from the start location to locate the escape platform). […] Every sixth trial consists of a probe trial to assess the development of spatial bias in the maze. During these trials, the rat swims with the platform being refracted to the bottom of the pool for 30 sec, at which time the platform is raised to its normal position for completion of the escape trial. At the completion of the protocol using the hidden platform, rats are assessed for cue learning using the visible platform. The location of this platform varies from trial to trial in a single session of 6 training trials. […]

[2] = tested on: somatostatin in DG hilus; test: somatostatin immunohistochemistry, SOM-immunoreactive hilar neuron counts after 4-week levetiracetam; type: in vivo, rat; conditions: 10 mg/kg/day, osmotic minipumps, four weeks; AI-LEV vs Y p=0.679, AI-LEV vs AI-VEH p<0.01
Procedure: Under isoflurane anesthesia, memory-impaired aged rats are implanted subcutaneously in the intrascapular region with osmotic mini-pumps (ALZET,
Durect Corporation, Cupertino, Calif.) with levetiracetam (10 mg/kg/day) or saline vehicle for four weeks prior to perfusion. Young rats, which served as controls, receive either saline vehicle in mini-pumps or no implantation.
At the end of the 4-week treatment period, rats are anesthetized with isoflurane and perfused transcardiacally with 0.1 M phosphate buffer saline, followed by 4% paraformaldehyde in phosphate buffer. Brains are removed and post-fixed in paraformaldehyde overnight. […]
Tissue is labeled with anti-SOM antiserum (Santa Cruz Biotechnology; cat. no. SC7819-P) using an established immunoperoxidase protocol and tissue sections are processed concurrently to minimize inter-replication variability (Haberman et al., 2009). […] The secondary antibody is detected with avidin-biotin complex (ABC Elite; Vector Laboratories Inc., Burlingame, Calif.) and the avidin-biotin complex is visualized with nickel-enhanced diaminobenzadine (Vector Laboratories Inc., Burlingame, Calif.). […]
Interneuron quantification is performed using a Zeiss Axioplan 2 microscope equipped with a motorized stage. […] Neuron counts are analyzed as the total number of hilar interneurons per hippocampal section for each rat.

[3] = 10 mg/kg/day i.p., retention trial

With `CC[C@@H](C(N)=O)N1CCCC1=O` [levetiracetam, (2S)-2-(2-oxopyrrolidin-1-yl) butanamide] the “performance (time in target quadrant) versus vehicle” value ([1]; 5 mg/kg/day i.p., retention trial) was “does not significantly improve”, the “memory as compared to vehicle-treated controls” value [1, 3] was “significantly improved memory” and the “time spent in the target annulus” value [1, 3] was “effectiveness of the 10 mg/kg/day levetiracetam treatment is also seen”. The “time spent in the target quadrant, percentage of total swimming time” value ([1]; 10 mg/kg/day i.p., retention trial 24 h after two training days, vehicle approximately 25%) was “approximately 35%” and the “levels of somatostatin in DG hilus (SOM-immunoreactive hilar neurons)” value [2] was “restores the levels of somatostatin; also recorded: restores sematostatin in DG hilus”.
